# From US11225565B2, “Purification of sugammadex” (SYNTHON B.V., priority 2018, dated 2022)
# What was measured:
# [1] = Osmolality of sugammadex solution in water (OSMOMAT 3000, freezing point comparison); assay type: physicochemical; details: concentration 108 mg/ml
# Procedure: Osmolality was measured using OSMOMAT 3000 (Gonotec), a solution (concentration 108 mg/ml) of sugammadex in water was used. The osmolality of the solution was obtained by comparison of freezing point of the sugammadex solution and the freezing point of water.
# [2] = Sodium content of sugammadex samples by potentiometric titration with HClO4; assay type: physicochemical; details: sugammadex solution in glacial acetic acid, 3 mg/ml, titrated with 0.1 M HClO4
# Procedure: The sodium content was obtained by titration of sugammadex solution in glacial acetic acid (concentration 3 mg/ml) using 0.1 M solution of HClO4 using Titrator 794 DMS Titrino, Metrohm. The endpoint (VEQ) was determined potentiometrically.
substance,measurement,setting,value
"6A,6B,6C,6D,6E,6F,6G,6H-Octakis-S-(2-carboxyethyl)-6A,6B,6C,6D,6E,6F,6G-octasulfanyl-gamma-cyclodextrin octasodium salt [Example 1]",Osmolality,[1],322 mOsmol/kg
same,Sodium content % (wt/wt) based on amount of sugammadex,[2],8.5 % (wt/wt)
"6A,6B,6C,6D,6E,6F,6G,6H-Octakis-S-(2-carboxyethyl)-6A,6B,6C,6D,6E,6F,6G-octasulfanyl-gamma-cyclodextrin octasodium salt [Example 2]",Osmolality,[1],320 mOsmol/kg
same,Sodium content % (wt/wt) based on amount of sugammadex,[2],8.5 % (wt/wt)
"6A,6B,6C,6D,6E,6F,6G,6H-Octakis-S-(2-carboxyethyl)-6A,6B,6C,6D,6E,6F,6G-octasulfanyl-gamma-cyclodextrin octasodium salt [Example 3]",Osmolality,[1],349 mOsmol/kg
same,Sodium content % (wt/wt) based on amount of sugammadex,[2],8.5 % (wt/wt)
"6A,6B,6C,6D,6E,6F,6G,6H-Octakis-S-(2-carboxyethyl)-6A,6B,6C,6D,6E,6F,6G-octasulfanyl-gamma-cyclodextrin octasodium salt [Example 4 of WO2017144734 application, reference compound]",Osmolality,[1],986 mOsmol/kg
same,Sodium content % (wt/wt) based on amount of sugammadex,[2],11.14 % (wt/wt)
"6A,6B,6C,6D,6E,6F,6G,6H-Octakis-S-(2-carboxyethyl)-6A,6B,6C,6D,6E,6F,6G-octasulfanyl-gamma-cyclodextrin octasodium salt [Example 4]",Osmolality,[1],346 mOsmol/kg
same,Sodium content % (wt/wt) based on amount of sugammadex,[2],8.5 % (wt/wt)
"6A,6B,6C,6D,6E,6F,6G,6H-Octakis-S-(2-carboxyethyl)-6A,6B,6C,6D,6E,6F,6G-octasulfanyl-gamma-cyclodextrin octasodium salt [Example 5]",Osmolality,[1],335 mOsmol/kg
same,Sodium content % (wt/wt) based on amount of sugammadex,[2],8.5 % (wt/wt)
"6A,6B,6C,6D,6E,6F,6G,6H-Octakis-S-(2-carboxyethyl)-6A,6B,6C,6D,6E,6F,6G-octasulfanyl-gamma-cyclodextrin octasodium salt [Example 6]",Osmolality,[1],348 mOsmol/kg
same,Sodium content % (wt/wt) based on amount of sugammadex,[2],8.5 % (wt/wt)
